Measurements published in patent US8993585B2, “Cyclic amine substituted pyrimidinediamines as PKC inhibitors” (Rigel Pharmaceuticals, Inc., priority 2007, dated 2015).
pIC50: −log10 of the molar value.

Tests used:
PKC theta = target: T1, PKC theta (Homo sapiens, UniProt Q04759); assay: PKC assay, fluorescence polarization (Example 2), PKC theta; assay type: biochemical; details: 5 μM ATP
T1 construct: purchased Upstate Biotechnologies, Temecula, CA 14-444
Protocol: The inhibition of PKC activity was measured by monitoring the production of phosphorylated peptide by fluorescence polarization at different concentrations of the inhibitor. Reactions were carried out in 96-well plate format with a total volume of 20 μL containing 20 mM HEPES, pH 7.4, 5 mM MgCl2, 0.2 mM CaCl2, 1 mM DTT, 0.02% Brij-35, 0.1 mg/mL phosphatidylserine, 0.02 mg/mL dioleoyl-sn-glycerol and 5 μM each of ATP and the peptide substrate. Compounds were first diluted serially in DMSO and then transferred to a solution containing the above concentrations of HEPES, MgCl2, CaCl2, DTT, and Brij-35 to yield 5× compound solutions in 2% DMSO, which was then added to the reaction solution. Reactions were initiated by the addition of PKC at a typical concentration as described in Table VI, and then allowed to incubate at room temperature for 20 min. At the end of this time, a combination of quench (EDTA) and detection (peptide tracer and antibody) reagents was added using the protocol of Invitrogen P2748.

Human primary T cells = assay: IL-2 ELISA, Human Primary T Cell, Anti-CD3+CD28+ (Example 3); assay type: cell-based; details: anti-CD3+CD28 stimulation
Method in brief: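 Human primary T cells, 100,000 per well, were pre-incubated with compound in Yssel's medium for 1 h at 37 °C. The counter-assay used 0.5 ng/ml PMA with 0.1 uM ionomycin final.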

T1 sequence (Q04759 whole entry): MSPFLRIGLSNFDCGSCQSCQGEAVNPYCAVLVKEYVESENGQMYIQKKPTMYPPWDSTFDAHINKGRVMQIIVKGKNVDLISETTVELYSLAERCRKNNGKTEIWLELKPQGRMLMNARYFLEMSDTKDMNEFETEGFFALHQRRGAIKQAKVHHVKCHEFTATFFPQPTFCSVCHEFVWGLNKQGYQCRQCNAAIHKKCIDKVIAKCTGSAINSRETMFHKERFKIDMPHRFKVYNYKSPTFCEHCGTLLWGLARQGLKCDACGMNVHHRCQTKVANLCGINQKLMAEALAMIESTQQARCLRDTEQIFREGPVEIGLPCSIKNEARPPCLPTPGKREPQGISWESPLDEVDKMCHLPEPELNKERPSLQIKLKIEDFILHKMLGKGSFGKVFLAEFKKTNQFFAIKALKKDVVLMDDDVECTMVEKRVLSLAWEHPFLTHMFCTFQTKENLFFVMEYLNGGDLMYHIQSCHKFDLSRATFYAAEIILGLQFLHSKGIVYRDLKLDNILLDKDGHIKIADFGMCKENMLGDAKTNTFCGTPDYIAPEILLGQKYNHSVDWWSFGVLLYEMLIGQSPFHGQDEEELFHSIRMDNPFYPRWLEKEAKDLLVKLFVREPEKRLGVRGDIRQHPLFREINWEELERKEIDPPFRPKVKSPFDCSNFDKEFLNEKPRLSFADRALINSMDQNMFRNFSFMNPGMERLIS

Row | Compound | pIC50 (PKC theta) | pIC50 (Human primary T cells; Homo sapiens, T-cell, 24 h) | pIC50 (Human primary T cells; 24 hours)
1 | CN1C(C)(C)CC(Nc2nc(Nc3ccc(Cl)c(C#N)c3)ncc2F)CC1(C)C [Compound I-163] | 8.42 | 6.54 | 
2 | CN1C(C)(C)CC(Nc2nc(Nc3ccc(N4CCN(S(C)(=O)=O)CC4)c(C#N)c3)ncc2F)CC1(C)C [Compound I-164] | 8.67 | 6.65 | 
3 | CN1C(C)(C)CC(Nc2nc(Nc3ccc(N4CCN(S(=O)(=O)C5CC5)CC4)c(C(F)(F)F)c3)ncc2F)CC1(C)C [Compound I-173] | 7.58 | 6.42 | 
4 | CN1C(C)(C)CC(Nc2nc(Nc3ccc(N4CCN(S(=O)(=O)C5CC5)CC4)c(Cl)c3)ncc2F)CC1(C)C [Compound I-174] | 7.97 | 6.57 | 
5 | CN1C(C)(C)CC(Nc2nc(Nc3ccc(N4CCN(S(C)(=O)=O)CC4)c(C#N)c3)ncc2Cl)CC1(C)C [Compound I-175] | 8.15 | 6.69 | 
6 | CN1CCN(c2ccc(Nc3ncc(Cl)c(NC4CC(C)(C)N(C)C(C)(C)C4)n3)cc2C#N)CC1 [Compound I-179] | 8.83 | 7.04 | 
7 | CN1C(C)(C)CC(Nc2nc(Nc3ccc(-c4ccncc4)c(C#N)c3)ncc2F)CC1(C)C [Compound I-185] | 8.12 | 6.52 | 
8 | CN1C(C)(C)CC(Nc2nc(Nc3ccc(-c4cccnc4)c(C#N)c3)ncc2F)CC1(C)C [Compound I-186] | 8.85 | 7.03 | 
9 | Cc1ccc(Nc2ncc(F)c(NC3CC(C)(C)N(C)C(C)(C)C3)n2)cc1-c1cnn(C)c1 [Compound I-190] | 7.84 | 6.29 | 
10 | CN1C(C)(C)CC(Nc2nc(Nc3ccc(N4CCOCC4)c(C#N)c3)ncc2F)CC1(C)C [Compound I-198] | 8.71 | 6.76 | 
11 | CN1C(C)(C)CC(Nc2nc(Nc3cc(-c4ccoc4)cc(C(F)(F)F)c3)ncc2F)CC1(C)C [Compound I-203] | 7.04 | 6.37 | 
12 | CN1C(C)(C)CC(Nc2nc(Nc3cc(-c4cnn(C)c4)cc(C(F)(F)F)c3)ncc2F)CC1(C)C [Compound I-204] | 7.08 | 6.36 | 
13 | CN1C(C)(C)CC(Nc2nc(Nc3ccc(OC(F)(F)F)c(-c4cccnc4)c3)ncc2F)CC1(C)C [Compound I-208] | 7.28 | 6.33 | 
14 | CN1C(C)(C)CC(Nc2nc(Nc3cccc(OC(F)F)c3)ncc2F)CC1(C)C [Compound I-234] | 7.87 | 6.65 | 
15 | CN1CCN(c2ccc(Nc3ncc(F)c(NC4CC(C)(C)N(C)C(C)(C)C4)n3)cc2OC(F)F)CC1 [Compound I-236] | 8.62 |  | 6.92
16 | CN1C(C)(C)CC(Nc2nc(Nc3ccc(N4CCN(S(C)(=O)=O)CC4)c(OC(F)F)c3)ncc2F)CC1(C)C [Compound I-238] | 8.40 | 6.94 | 
17 | CN1C(C)(C)CC(Nc2nc(Nc3ccc(N4CCN(S(C)(=O)=O)CC4)c(C(F)(F)F)c3)ncc2F)CC1(C)C [Compound I-244] | 7.47 | 6.61 | 
18 | CN1C(C)(C)CC(Nc2nc(Nc3ccc(N4CCC(F)(F)CC4)c(C(F)(F)F)c3)ncc2F)CC1(C)C [Compound I-245] | 6.48 | 6.27 | 
19 | CCCN1CCN(c2ccc(Nc3ncc(F)c(NC4CC(C)(C)N(C)C(C)(C)C4)n3)cc2Cl)CC1 [Compound I-249] | 7.86 | 6.87 | 
20 | CC1CN(c2cc(Nc3ncc(F)c(NC4CC(C)(C)N(C)C(C)(C)C4)n3)ccc2Cl)CC(C)N1C (stereo not shown) [Compound I-250] | 5.98 | 5.83 | 
21 | CC(=O)N1C(C)CN(c2cc(Nc3ncc(F)c(NC4CC(C)(C)N(C)C(C)(C)C4)n3)ccc2Cl)CC1C (stereo not shown) [Compound I-251] | 6.42 | 6.42 | 
22 | COc1ccc(Nc2ncc(F)c(NC3CC(C)(C)NC(C)(C)C3)n2)cc1Cl [Compound I-254] | 7.27 | 6.31 | 
23 | CN1C(C)(C)CC(Nc2nc(Nc3ccc(-c4ccoc4)c(C(F)(F)F)c3)ncc2F)CC1(C)C [Compound I-328] | 7.34 | 6.54 | 
24 | Cc1ccc(Nc2ncc(F)c(NC3CC(C)(C)N(C)C(C)(C)C3)n2)cc1Cl [Compound I-332] | 7.44 | 6.52 | 
25 | CN1C(C)(C)CC(Nc2nc(Nc3ccc(C(F)(F)F)c(Cl)c3)ncc2F)CC1(C)C [Compound I-337] | 6.60 | 6.51 | 
26 | CN1C(C)(C)CC(Nc2nc(Nc3ccc(NC(=O)c4ccco4)c(Cl)c3)ncc2F)CC1(C)C [Compound I-339] | 7.50 | 6.73 | 
27 | CCN1C(=O)CCc2cc(Nc3ncc(F)c(NC4CC(C)(C)N(C)C(C)(C)C4)n3)ccc21 [II-5] | 7.42 | 6.25 | 
28 | CN1C(=O)COc2cc(Nc3ncc(F)c(NC4CC(C)(C)N(C)C(C)(C)C4)n3)ccc21 [II-6] | 8.22 | 6.61 | 
29 | Cc1ccc2cc(Nc3ncc(F)c(NC4CC(C)(C)N(C)C(C)(C)C4)n3)ccc2n1 [II-7] | 7.27 | 6.32 | 
